Reference: patent US20250381110A1, “SKIN CARE COMPOSITION AND METHOD OF USING THE SAME” (THE PROCTER & GAMBLE COMPANY, priority 2024, published 2025)
Structures can show the parent of a compound that is named as a salt. Where two headings read alike, the source gives them in different places.

Tested on: p62-dependent mitophagy
Test: Luciferase-p62 assay (Fluc-p62 clearance) in mouse embryonic fibroblasts
Type: cell-based
Summary of the method: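 MEFs with doxycycline-inducible Fluc-p62; after induction, doxycycline removed and cells treated 48 h with compounds at 10 μM. Fluc-p62 clearance, taken as mitophagy, read by ONE-Glo+Tox luciferase with viability. Vehicle (DMSO) as negative control; activity also expressed relative to rapamycin.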

[1] = Luciferase-p62 assay, mouse embryonic fibroblasts (MEFs), compounds at 10 μM
[2] = percentage of Luciferase-p62 clearance relative to baseline (mean luminescence in the absence of doxycycline induction), MEFs, 10 μM
[3] = percentage of activity relative to rapamycin tested in the same experiment at the same concentration, MEFs, 10 μM

SMILES	Mean Luminescence [1]	% Activity over baseline [2]	% Activity relative to Rapamycin [3]	Mean Luminescence	% Activity over baseline (10 µM)	% Activity relative to Rapamycin (10 µM)
CC[C@H]1OC(=O)[C@H](C)[C@@H](O[C@H]2C[C@@](C)(OC)[C@@H](O)[C@H](C)O2)[C@H](C)[C@@H](O[C@@H]2O[C@H](C)C[C@H](N(C)C)[C@H]2O)[C@](C)(OC)C[C@@H](C)C(=O)[C@H](C)[C@@H](O)[C@]1(C)O [Clarithromycin]	941.49	41.82%	75.34%	–	–	–
C/C=C(\C)C(=O)O [Tiglic acid]	947.74	41.43%	74.64%	–	–	–
CCN1C(=O)C=CC1=O [N-Ethylmaleimide (NEM)]	668.28	58.70%	105.76%	–	–	–
CC1(C)S[C@@H]2[C@H](NC(=O)Cc3ccccc3)C(=O)N2[C@H]1C(=O)O [Benzylpenicillin potassium]	937.79	42.04%	75.75%	–	–	–
COc1ccc(C=O)cc1OC [Veratraldehyde]	887.33	45.16%	81.37%	–	–	–
COc1nc2ccc(Br)cc2cc1[C@@H](c1ccccc1)[C@@](O)(CCN(C)C)c1cccc2ccccc12 [Bedaquiline]	802.99	–	–	–	–	–
O[C@H]1[C@H](O)[C@@H](O)[C@H](O)[C@@H](O)[C@H]1O [myo-Inositol]	670.16	58.58%	105.55%	–	–	–
O=C(O[C@@H]1O[C@@H]2COC(=O)c3cc(O)c(O)c(O)c3-c3c(cc(O)c(O)c3O)C(=O)O[C@H]([C@H]1O)[C@@H]2O)c1cc(O)c(O)c(O)c1 [Corilagin]	985.42	39.10%	70.45%	–	–	–
CC(C)CC(=O)NCC(=O)O [Isovaleroylglycine]	776.88	51.99%	93.67%	–	–	–
O=C(O)CC(O)C(=O)O (stereo not shown) [Malic acid]	962.28	40.53%	73.03%	–	–	–
COc1cc2ncnc(Nc3ccc(F)c(Cl)c3)c2cc1OCCCN1CCOCC1 [Gefitinib (ZD1839)]	960.31	40.65%	73.25%	–	–	–
Cc1nc(Nc2ncc(C(=O)Nc3c(C)cccc3Cl)s2)cc(N2CCN(CCO)CC2)n1 [Dasatinib Monohydrate]	410.49	74.63%	134.47%	–	–	–
CC(C)(CO)C(O)C(=O)NCCCO (racemic) [DL-Panthenol]	991.50	38.72%	69.77%	–	–	–
Cl.NCCc1ccc(O)c(O)c1 [Dopamine HCl]	–	–	–	995.96	38.45%	69.28%
NC(=O)Cc1ccccc1 [Compound 2-Phenylacetamide, 2-Phenylacetamide]	861.95	46.73%	84.20%	–	–	–
O[C@@H]1[C@@H](O)[C@H](OC/C=C/c2ccccc2)O[C@H](CO[C@@H]2OC[C@H](O)[C@H](O)[C@H]2O)[C@H]1O [Rosavin]	983.74	39.20%	70.64%	–	–	–
C=CCc1ccc(O)c(-c2cc(CC=C)ccc2O)c1 [Magnolol]	950.75	41.24%	74.31%	–	–	–

SMILES	Mean Luminescence [1]	% Activity over baseline [2]	% Activity relative to Rapamycin [3]	Mean Luminescence	% Activity over baseline (10 µM)	% Activity relative to Rapamycin (10 µM)
COc1cc(C=O)ccc1OC(C)=O [Acetylvanillin]	979.34	39.48%	71.13%	–	–	–
CC(C)=CCOc1ccc(/C=C/C(=O)c2ccc(OCC=C(C)C)cc2OCC(=O)O)cc1 [Sofalcone]	760.95	52.97%	95.44%	–	–	–
O=C(O)CC(=O)O [Malonic acid]	865.42	46.52%	83.81%	–	–	–
CCOC(=O)O[C@]1(C(=O)OCCl)CC[C@H]2[C@@H]3CCC4=CC(=O)C=C[C@]4(C)[C@H]3[C@@H](O)C[C@@]21C [Loteprednol etabonate]	214.82	86.72%	156.26%	–	–	–
O=c1ccn2c(n1)O[C@H]1[C@H](O)[C@@H](CO)O[C@H]12 [2,2′-Cyclouridine]	935.30	42.20%	76.03%	–	–	–
CN(C)CCn1nnnc1SCC1=C(C(=O)O)N2C(=O)[C@@H](NC(=O)Cc3csc(N)n3)[C@H]2SC1 [Cefotiam hydrochloride]	993.62	38.59%	69.54%	–	–	–
C/C=C1/[C@H](O[C@@H]2O[C@H](CO)[C@@H](O)[C@H](O)[C@H]2O)OC=C(C(=O)OC)[C@H]1CC(=O)OCCc1ccc(O)c(O)c1 [Oleuropein]	843.32	47.88%	86.27%	–	–	–
CCC/C=C1\OC(=O)C2=C1CCC=C2 [Z-Ligustilide]	895.67	44.65%	80.44%	–	–	–
CC(=O)O[C@H](CC(=O)O)C[N+](C)(C)C.[Cl-] [L-Acetylcarnitine (hydrochloride)]	581.20	64.08%	115.46%	–	–	–
CCC[C@@H]1C[C@@H](C(=O)N[C@@H]([C@H]2O[C@H](SC)[C@H](OP(=O)(O)O)[C@@H](O)[C@H]2O)[C@H](C)Cl)N(C)C1 [Clindamycin Phosphate]	526.49	67.46%	121.55%	–	–	–
COc1ccc(/C=C/C(=O)/C=C(O)/C=C/c2ccc(OC)c(OC)c2)cc1OC [ASC-J9]	664.12	58.96%	106.23%	–	–	–
COc1cc(C(C)=O)ccc1O [Apocynin]	973.30	39.85%	71.80%	–	–	–
C=CC[C@@H]1/C=C(\C)C[C@H](C)C[C@H](OC)[C@H]2O[C@@](O)(C(=O)C(=O)N3CCCC[C@H]3C(=O)O[C@H](/C(C)=C/[C@@H]3CC[C@@H](O)[C@H](OC)C3)[C@H](C)[C@@H](O)CC1=O)[C@H](C)C[C@@H]2OC [Tacrolimus (FK506)]	512.17	68.35%	123.15%	–	–	–
CO[C@H]1O[C@@H]2O[C@@]3(C)CC[C@H]4[C@H](C)CC[C@@H]([C@H]1C)[C@@]24OO3 [Artemether (SM-224)]	596.56	63.13%	113.75%	–	–	–
Oc1cc(O)cc(/C=C/c2ccc(O)cc2O)c1 [Oxyresveratrol]	403.74	75.05%	135.22%	–	–	–
C[N+](C)(C)CC(O)CC(=O)O.[Cl-] (racemic) [DL-Carnitine HCl]	902.01	44.26%	79.74%	–	–	–
